“And” between values parts separate entries of the source, which are not always exact repeats. Equal entries are not always repeated.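 Growth conditions: 96-well plates. Treatment: test compound, 48 hours, 5 concentrations. Analysis: linear interpolation between bracketing concentrations; unreached endpoints set to highest concentration. GI50 = concentration required for 50% inhibition of growth. TGI denotes the concentration required for complete inhibition of growth.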 Where a SMILES comes first, the peptide text is derived from it. [ ]: non-standard residue; d: D form. The star is where a group is joined. Phe(4-NO2) = N[CH](Cc1ccc([N+](=O)[O-])cc1)C(=O)O; Boc = CC(C)(C)OC(=O)*
Assays:
Test in all cases: growth of human tumour cells (NCI), 48 h
[1] = system: A498 renal
[2] = system: COLO 205 colon
[3] = system: MCF7 breast
[4] = system: MDA-N
[5] = system: OVCAR-3 ovarian
[6] = system: OVCAR-4 ovarian
[7] = system: SF-268 CNS
[8] = system: UACC-257 melanoma
[9] = system: UO-31 renal
[10] = system: SR leukemia

Row | Structure (SMILES) | GI50 [1] | TGI [1] | GI50 [2] | TGI [2] | GI50 [3] | TGI [3] | GI50 [4] | TGI [4] | TGI [5] | TGI [6] | TGI [7] | TGI [8] | TGI [9] | TGI [10] | GI50 [5] | GI50 [6] | GI50 [7] | GI50 [10] | GI50 [8] | GI50 [9]
1 | O=C1C(N2CCN(CCOCCO)CC2)=C(Cl)C(=O)c2ncccc21 | > 100 µM | > 100 µM | 19.3 µM | 36.8 µM | 18.3 µM | 5.97 µM and 36.7 µM | 19.4 µM | 3.76 µM and 35 µM | 32.7 µM | 34.8 µM | 44.5 µM | 39.9 µM | 33.6 µM | – | – | – | – | – | – | –
2 | O=C1N2CCC[C@H]2CS1(=O)=O | – | 44.5 µM | – | 28.9 µM | – | 21.8 µM | – | – | 31.4 µM | 28.6 µM | 42.7 µM | 37.4 µM | 28.5 µM | – | – | – | – | – | – | –
3 | Cc1c(OCc2cccc3ccccc23)ccc2c(=O)cc(SCCN3CCOCC3)oc12 | – | > 100 µM | – | > 100 µM | – | > 100 µM | – | – | > 100 µM | > 100 µM | > 100 µM | > 100 µM | > 100 µM | > 100 µM | – | – | – | – | – | –
4 | O=c1c2ccccc2nc(N/N=C/c2ccc([N+](=O)[O-])cc2)n1-c1ccccc1 | – | – | – | > 100 µM | – | > 100 µM | – | > 100 µM | > 100 µM | > 100 µM | 59.3 µM | > 100 µM | > 100 µM | > 100 µM | – | – | – | – | – | –
5 | O=C1c2ccccc2C2(c3ccc(F)cc3)NCCN12 (stereo not given) | – | – | – | > 100 µM | – | > 100 µM | – | > 100 µM | > 100 µM | > 100 µM | > 100 µM | > 100 µM | > 100 µM | – | – | – | – | – | – | –
6 | Cc1cc(C)c2c(c1)C/C(=C\c1cccc(C)c1C(=O)O)C2=O | – | > 100 µM | – | – | – | – | – | > 100 µM | > 100 µM | > 100 µM | > 100 µM | > 100 µM | > 100 µM | > 100 µM | – | – | – | – | – | –
7 | Cc1cc(C)nc(NS(=O)(=O)c2ccc(NNc3c4ccccc4nc4c(C(=O)Nc5ccc(S(=O)(=O)Nc6cc(C)on6)cc5)cccc34)cc2)n1 | – | – | – | > 100 µM | – | > 100 µM | – | > 100 µM | 47.2 µM | > 100 µM | 81.3 µM | > 100 µM | > 100 µM | 72.8 µM | – | – | – | – | – | –
8 | O=C(Nc1ccc(-n2cc(-c3ccncc3)c(-c3ccc(O)c(Cl)c3)n2)cc1)c1ccc(Cl)c(C(F)(F)F)c1 | 41.7 µM | > 50 µM | 7.67 µM | 26 µM | 2.4 µM | > 50 µM | – | – | 7.33 µM | > 50 µM | > 50 µM | 34.5 µM | 28.3 µM | 13 µM | 1.63 µM | 2.52 µM | 2.79 µM | 1.68 µM | 4.87 µM | 2.65 µM
9 | CCOC(=O)CCC(NC(=O)C(Cc1ccc([N+](=O)[O-])cc1)NC(=O)OC(C)(C)C)C(=O)NC(CCC(=O)OCC)C(=O)OCC (stereo not given) (Boc-[Phe(4-NO2)]-Glu(OEt)-Glu(OEt)-OEt; configuration not given here) | – | 36.4 µM | – | 57.1 µM | – | > 100 µM | – | 52.6 µM | – | – | – | – | > 100 µM | 9.38 µM | – | – | – | – | – | –
10 | Oc1ccc2ccccc2c1OCc1nnc(CCCCCCCCc2nnc(COc3c(O)ccc4ccccc34)n2Nc2ccccc2)n1Nc1ccccc1 | – | > 100 µM | – | 1.28 µM | – | > 100 µM | – | – | 32.1 µM | > 100 µM | > 100 µM | > 80 µM | > 82 µM | – | – | – | – | – | – | –
11 | O=C1CCCCC/C1=C\c1cccc(F)c1 | – | > 100 µM | – | > 100 µM | – | > 100 µM | – | > 100 µM | > 100 µM | – | > 100 µM | > 100 µM | > 100 µM | 61.2 µM | – | – | – | – | – | –
12 | Cc1ccc(-n2nncc2[Si](C)(C)C)s1 | – | > 100 µM | – | > 100 µM | – | > 100 µM | – | > 100 µM | > 100 µM | > 100 µM | > 100 µM | > 100 µM | > 100 µM | – | – | – | – | – | – | –
13 | CC(c1ccccc1)n1cncc1C(=O)NN1CCN(C)CC1 (stereo not given) | – | > 10 µM | – | > 10 µM | – | > 10 µM | – | > 10 µM | > 10 µM | > 10 µM | > 10 µM | > 10 µM | – | > 10 µM | – | – | – | – | – | –
14 | Cc1cc2c(=O)c3ccc(Cl)cc3[nH]c2c(C(N)=O)c1C | – | > 100 µM | – | > 100 µM | – | – | – | – | > 100 µM | > 100 µM | > 100 µM | > 100 µM | > 100 µM | – | – | – | – | – | – | –
15 | COc1cccc2c1OC1c3ccccc3OCC1(O)C2 (stereo not given) | – | > 100 µM | – | > 100 µM | – | > 100 µM | – | > 100 µM | > 100 µM | > 100 µM | > 100 µM | > 100 µM | > 100 µM | – | – | – | – | – | – | –
16 | CCOc1ccc2nc3nc(=O)[nH]c(C)c3c(NC(C)(CO)CO)c2c1 | – | > 100 µM | – | > 100 µM | – | > 100 µM | – | > 100 µM | > 100 µM | > 100 µM | > 100 µM | > 100 µM | > 100 µM | – | – | – | – | – | – | –
17 | N/N=C(/N)SCCCCCCCCCCS/C(N)=N/N | – | 43.8 µM | – | 27.7 µM | – | 64.4 µM | – | – | 91.1 µM | – | > 100 µM | > 100 µM | 78.9 µM | 27.4 µM | – | – | – | – | – | –
18 | CC(=O)OCC1OC(SC2=NC(=O)CS2)C(OC(C)=O)C(OC(C)=O)C1OC(C)=O (stereo not given) | – | > 100 µM | – | – | – | > 100 µM | – | > 100 µM | > 100 µM | – | > 100 µM | > 100 µM | > 100 µM | > 100 µM | – | – | – | – | – | –
19 | COc1ccc(OC)c2c(C)ccnc12 | – | > 100 µM | – | > 83.3 µM | – | > 100 µM | – | > 100 µM | 26 µM | > 71 µM | > 97.2 µM | > 92.5 µM | 74.3 µM | – | – | – | – | – | – | –
20 | O=C(O)Cn1c2c(c3c1-c1ccccc1C3=O)C(=O)CCC2 | > 100 µM | > 100 µM | > 100 µM | > 100 µM | > 100 µM | > 100 µM | – | – | > 100 µM | > 100 µM | > 100 µM | > 100 µM | > 100 µM | – | > 100 µM | > 100 µM | > 100 µM | – | > 100 µM | > 100 µM
21 | Oc1c(Cl)cc2cc1-c1cc(cc(Cl)c1O)CCc1c(cc(Cl)c(O)c1Cl)-c1cc(Cl)c(c(Cl)c1O)/C=C\2 | – | 30.8 µM | – | 16.4 µM | – | – | – | – | 14.4 µM | 24 µM | 23.6 µM | 35.8 µM | – | > 50 µM | – | – | – | – | – | –
22 | CC(=O)/C=C/c1ccccc1 | – | 76.3 µM | – | > 100 µM | – | > 100 µM | – | 91.9 µM | – | > 100 µM | > 100 µM | > 100 µM | > 100 µM | 53 µM | – | – | – | – | – | –
